The target of one experiment is CB2 receptor (Homo sapiens, UniProt P34972). The note with it: Smoum et al. (2015); cited from earlier work.
Experiment [1] deals with corneal cauterization and capsaicin challenge (corneal pain). The note with it: cited from earlier work; for ED50: Thapa et al (2018).
For experiment [2], the system named is plantar incision in the hind paw (post-operative incisional pain). The experiment is described as follows: Rat postoperative incisional (plantar incision) pain model, von Frey withdrawal threshold. To be noted: iv; for ED50: Rattus norvegicus, read-out: ED50 (median effective dose).
Method: The model developed was based on that described by Labuda et al. (supra). […] All test articles were administered intravenously via the tail vein as a single bolus.
Male Sprague Dawley rats (Charles River, St-Constant, Qc, Canada), were purchased and housed in auto-ventilated cages in a climate-controlled room on a 12-hour light/dark cycle. The animals were allowed free access to food pellets and water and weighed 200-225 g at the time of the testing.
Post-operative incisional pain was induced via a 1 cm plantar incision in the hind paw. Briefly, under deep anesthesia with isoflurane the plantar aspect of the hind paw was cleaned and sterilized using a 10% povidone-iodine solution after which a 1 cm longitudinal incision was made with a number 11 blade. The incision penetrated through the skin and fascia of the plantar aspect of the foot. The plantaris muscle was also elevated and incised longitudinally, the muscle origin remaining intact. After hemostatis with gentle pressure, the skin was closed with 2 mattress sutures of 5-0 nylon and the wound site covered with an antibacterial ointment. The rats were then placed in clear Plexiglas cages with plastic grid floors (8×8 mm) and allowed to acclimate.
The pain response was evaluated using the von Frey mechanical stimulation test employing von Frey filaments applied vertically to an area adjacent to the wound. […] The resistance to bending (reflective of the applied pressure) of the filament causing a withdrawal response was then recorded as the withdrawal threshold. […] After each filament application, animals were given a 5 minute test-free period after which the test was repeated the lowest force required for a withdrawal response from the 2 tests being recorded as the withdrawal threshold (WT). […]
The paw withdrawal threshold was again measured at 0.25, 1, 2, 3, 4, 5, 6, 7, 8 hours post treatment administration animal responses being plotted as withdrawal response/time curves for each dose given as before.

Sequence of CB2 receptor (P34972 whole entry): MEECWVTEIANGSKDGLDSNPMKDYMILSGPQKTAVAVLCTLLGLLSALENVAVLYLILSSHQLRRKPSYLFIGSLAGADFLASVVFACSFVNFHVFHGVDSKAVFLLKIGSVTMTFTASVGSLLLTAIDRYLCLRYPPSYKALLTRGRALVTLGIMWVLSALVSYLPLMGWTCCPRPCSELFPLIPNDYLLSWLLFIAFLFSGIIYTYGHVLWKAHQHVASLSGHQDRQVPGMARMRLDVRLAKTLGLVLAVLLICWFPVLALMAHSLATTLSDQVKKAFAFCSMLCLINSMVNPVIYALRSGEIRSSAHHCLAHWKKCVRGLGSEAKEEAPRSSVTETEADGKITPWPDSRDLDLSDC

As for `CCCCCCC(C)(C)c1cc(OC)c([C@@H]2C=C(CO)[C@@H]3C[C@H]2C3(C)C)c(OC)c1` (single isomer, unassigned) [Batch E2], on CB2 receptor, the “Affinity for CB2 receptor relative to E1” value is “lower affinity for CB2 receptor than E1”. As for `CCCCCc1cc(O)c2c(c1)OC(C)(C)[C@@H]1CC=C(C)C[C@@H]21` [A8 THC], the ED50 in experiment [1] was 1%. In the case of `C=C(C)[C@@H]1CCC(C)=C[C@H]1c1c(O)cc(CCCCC)cc1O` [CBD], in experiment [1], the ED50 was 5%.

With `CCCCCCC(C)(C)c1cc(OC)c([C@@H]2C=C(CO)[C@@H]3C[C@H]2C3(C)C)c(OC)c1` [HU-308], in experiment [1] (1.5% solution in soybean oil, Thapa et al. (2018)), the Pain score is on record as 17. For the same compound, the Analgesic effect result in experiment [1] (doses lower than 1.5%, Thapa et al. (2018)) is listed as “failed to generate an analgesic effect”. On to `O=C(c1ccccc1)c1ccc2n1CCC2C(=O)O` (centres unmarked) [Ketorolac, ketorolac], for which, in experiment [2], the ED50 came to 23.1 mg/kg and the “Dose/response relationship of AUC0.25-8 hr” value is reported as “clear dose response effect”. For `Cc1ccc(-c2cc(C(F)(F)F)nn2-c2ccc(S(N)(=O)=O)cc2)cc1` [celecoxib], in experiment [2], the ED50 amounted to 22.3 mg/kg.

The values are drawn from patent publication US20240016762A1, “DUAL ANALGESIC/ANTI-INFLAMMATORY COMPOSITIONS COMPRISING CB2 RECEPTOR AGONISTS, COMBINATIONS, AND METHODS OF USE THEREOF” (Altus Formulation lnc., priority 2020, published 2024).
